Measured values as given in patent US10344025B2, “GLS1 inhibitors for treating disease” (Board of Regents, The University of Texas System, priority 2014, dated 2019).

Assays:
[1] = molecular target: purified recombinant human GAC (GLS1) (Homo sapiens (Human), UniProt O94925); assay: GLS1 Enzymatic Activity Assay (dual-coupled enzymatic assay, resorufin/Amplex UltraRed readout); assay type: biochemical;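 note: glutamate from GAC coupled via glutamate oxidase and peroxidase to resorufin, read as fluorescence (ex 530, em 590 nm) kinetically or at 20 min, four-parameter logistic IC50 fit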
Sequence of purified recombinant human GAC (GLS1) (O94925 other isoform, or with tags, fused parts or gaps): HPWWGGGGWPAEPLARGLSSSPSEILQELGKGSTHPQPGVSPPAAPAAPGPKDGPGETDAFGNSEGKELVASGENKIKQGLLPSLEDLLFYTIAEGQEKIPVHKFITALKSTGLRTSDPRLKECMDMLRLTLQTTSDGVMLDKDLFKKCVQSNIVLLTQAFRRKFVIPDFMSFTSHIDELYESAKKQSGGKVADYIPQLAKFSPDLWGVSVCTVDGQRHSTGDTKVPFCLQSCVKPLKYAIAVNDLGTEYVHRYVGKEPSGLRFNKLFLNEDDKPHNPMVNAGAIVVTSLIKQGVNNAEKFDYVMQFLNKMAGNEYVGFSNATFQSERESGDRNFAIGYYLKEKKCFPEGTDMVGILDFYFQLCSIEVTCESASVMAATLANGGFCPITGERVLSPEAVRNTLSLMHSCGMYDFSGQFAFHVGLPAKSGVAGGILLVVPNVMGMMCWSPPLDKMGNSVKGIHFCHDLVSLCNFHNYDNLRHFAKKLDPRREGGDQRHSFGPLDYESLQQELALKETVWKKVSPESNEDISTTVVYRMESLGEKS

A549 cells = assay: Proliferation Assay (A549 viability, Cell Titer Fluor, 72 hours); assay type: cell-based; conditions: Homo sapiens, A549, 72 h
Method in brief: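 Cell Titer Fluor fluorescence after 72 h compound treatment (0.5% DMSO, 37 °C, 5% CO2) of A549 cells plated 24 h earlier at 1000/well. Four-parameter logistic fitting gave IC50.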

Structure (SMILES) | IC50 [1] [nM] | EC50 (A549 cells) [nM]
O=C(NCc1cncc(C(F)(F)F)c1)c1cn(CCC(F)Cn2cc(C(=O)NCc3cc(C(F)(F)F)ccn3)nn2)nn1 (stereo not shown) [Example 476, 1-{2-fluoro-4-[4-({[5-(trifluoromethyl)pyridin-3-yl]methyl}carbamoyl)-1H-1,2,3-triazol-1-yl]butyl}-N-{[4-(trifluoromethyl)pyridin-2-yl]methyl}-1H-1,2,3-triazole-4-carboxamide] | < 100 | < 100
O=C(NCc1cc(C(F)(F)F)ccn1)c1cn(CCC(F)Cn2cc(C(=O)NCc3ccccc3)nn2)nn1 (stereo not shown) [Example 450, N-benzyl-1-{2-fluoro-4-[4-({[4-(trifluoromethyl)pyridin-2-yl]methyl}carbamoyl)-1H-1,2,3-triazol-1-yl]butyl}-1H-1,2,3-triazole-4-carboxamide] | < 100 | 100 to 500
O=C(Cc1cccc(OC(F)(F)F)c1)Nc1cn(CC(F)CCn2cc(C(=O)NCc3ccccn3)nn2)nn1 (stereo not shown) [Example 327, 1-[3-fluoro-4-(4-{2-[3-(trifluoromethoxy)phenyl]acetamido}-1H-1,2,3-triazol-1-yl)butyl]-N-(pyridin-2-ylmethyl)-1H-1,2,3-triazole-4-carboxamide] | < 100 | < 100
Cc1ccc(CC(=O)Nc2cn(CCCCn3cc(C(=O)NCC4CCCC4)nn3)nn2)cn1 [Example 311, N-(cyclopentylmethyl)-1-(4-{4-[2-(6-methylpyridin-3-yl)acetamido]-1H-1,2,3-triazol-1-yl}butyl)-1H-1,2,3-triazole-4-carboxamide] | 100 to 500 | 500 to 5000
O=C(NCc1cccc(OC(F)(F)F)c1)c1cn(CCCCc2nnc(C(=O)NCC3CC3)s2)nn1 [Example 59, N-(cyclopropylmethyl)-5-{4-[4-({[3-(trifluoromethoxy)phenyl]methyl}carbamoyl)-1H-1,2,3-triazol-1-yl]butyl}-1,3,4-thiadiazole-2-carboxamide] | 100 to 500 | 500 to 5000
O=C(Cc1cc(OC(F)(F)F)ccc1F)Nc1ccc(CCCCn2cc(C(=O)NCc3ccncc3)nn2)nn1 [Example 587, 1-(4-(6-(2-(2-fluoro-5-(trifluoromethoxy)phenyl)acetamido)pyridazin-3-yl)butyl)-N-(pyridin-4-ylmethyl)-1H-1,2,3-triazole-4-carboxamide] | < 100 | < 100
C[C@H](NC(=O)c1cn(CCC(F)Cn2cc(C(=O)NCc3cc(C(F)(F)F)ccn3)nn2)nn1)c1ccccc1 (stereo partly drawn) [Example 458, 1-[2-fluoro-4-(4-{[(1S)-1-phenylethyl]carbamoyl}-1H-1,2,3-triazol-1-yl)butyl]-N-{[4-(trifluoromethyl)pyridin-2-yl]methyl}-1H-1,2,3-triazole-4-carboxamide] | 100 to 500 | 100 to 500
O=C(NCc1cc(C(F)(F)F)ccn1)c1cn(CCCCn2cc(C(=O)NCC3CCOC3)nn2)nn1 (stereo not shown) [Example 86] | 500 to 5000 | > 5000
O=C(Cc1cc(OC(F)(F)F)ccc1F)Nc1nnc(CCC(F)Cn2cc(C(=O)NCc3ccccn3)nn2)s1 (stereo not shown) [Example 204, 1-(2-fluoro-4-(5-(2-(2-fluoro-5-(trifluoromethoxy)phenyl)acetamido)-1,3,4-thiadiazol-2-yl)butyl)-N-(pyridin-2-ylmethyl)-1H-1,2,3-triazole-4-carboxamide] | < 100 | < 100
CNC(=O)c1cn(CCCCc2ccc(NC(=O)Cc3cccc(C4=CCN(C(=O)OC(C)(C)C)CC4)c3)nn2)nn1 [Example 212, tert-butyl 4-(3-(2-((6-(4-(4-(methylcarbamoyl)-1H-1,2,3-triazol-1-yl)butyl)pyridazin-3-yl)amino)-2-oxoethyl)phenyl)-3,6-dihydropyridine-1(2H)-carboxylate] | < 100 | < 100
O=C(NCCC(F)(F)F)c1cn(CC(F)CCc2nnc(C(=O)NCc3cncc(C(F)(F)F)c3)s2)nn1 (stereo not shown) [Example 502, 5-(3-fluoro-4-{4-[(3,3,3-trifluoropropyl)carbamoyl]-1H-1,2,3-triazol-1-yl}butyl)-N-{[5-(trifluoromethyl)pyridin-3-yl]methyl}-1,3,4-thiadiazole-2-carboxamide] | 100 to 500 | 100 to 500
COc1cccc(CNC(=O)c2cn(CCCCn3cc(C(=O)NCc4cc(C(F)(F)F)ccn4)nn3)nn2)c1 [Example 108, 1-[4-(4-{[(3-methoxyphenyl)methyl]carbamoyl}-1H-1,2,3-triazol-1-yl)butyl]-N-{[4-(trifluoromethyl)pyridin-2-yl]methyl}-1H-1,2,3-triazole-4-carboxamide] | < 100 | 100 to 500
O=C(NCc1ccccc1F)c1cn(CCC(F)Cn2cc(C(=O)NCc3cc(C(F)(F)F)ccn3)nn2)nn1 (stereo not shown) [Example 454, 1-[2-fluoro-4-(4-{[(2-fluorophenyl)methyl]carbamoyl}-1H-1,2,3-triazol-1-yl)butyl]-N-{[4-(trifluoromethyl)pyridin-2-yl]methyl}-1H-1,2,3-triazole-4-carboxamide] | < 100 | 100 to 500
O=C(NCc1cc(OC(F)(F)F)ccc1F)c1cn(CCC(F)Cn2cc(C(=O)NCc3ccc(C(F)(F)F)nc3)nn2)nn1 (stereo not shown) [Example 424, 1-{2-fluoro-4-[4-({[2-fluoro-5-(trifluoromethoxy)phenyl]methyl}carbamoyl)-1H-1,2,3-triazol-1-yl]butyl}-N-{[6-(trifluoromethyl)pyridin-3-yl]methyl}-1H-1,2,3-triazole-4-carboxamide] | < 100 | < 100
O=C(NCc1cc(C(F)(F)F)ccn1)c1cn(CCCCn2cc(C(=O)NCC3CCCCC3)nn2)nn1 [Example 90] | 100 to 500 | 100 to 500
CNC(=O)c1cn(CCCCc2ccc(NC(=O)Cc3cncc(-c4cccc(OC(F)(F)F)c4)c3)nn2)nn1 [Example 188, N-methyl-1-(4-(6-(2-(5-(3-(trifluoromethoxy)phenyl)pyridin-3-yl)acetamido)pyridazin-3-yl)butyl)-1H-1,2,3-triazole-4-carboxamide] | < 100 | < 100
CC(=O)Nc1ccc(CCCCn2cc(C(=O)NCc3cccc(OC(F)(F)F)c3)nn2)nn1 [Example 174, 1-[4-(6-acetamidopyridazin-3-yl)butyl]-N-{[3-(trifluoromethoxy)phenyl]methyl}-1H-1,2,3-triazole-4-carboxamide] | < 100 | 100 to 500
O=C(Cc1cccc(OC(F)(F)F)c1)Nc1nnc(CCCCn2cc(C(=O)NCc3cccnc3)nn2)s1 [Example 1, N-(pyridin-3-ylmethyl)-1-[4-(5-{2-[3-(trifluoromethoxy)phenyl]acetamido}-1,3,4-thiadiazol-2-yl)butyl]-1H-1,2,3-triazole-4-carboxamide] | < 100 | < 100
Cc1ccc(CNC(=O)c2cn(CCCCn3cc(C(=O)NCc4cccc(OC(F)(F)F)c4)nn3)nn2)cn1 [Example 72, 1-[4-(4-{[(6-methylpyridin-3-yl)methyl]carbamoyl}-1H-1,2,3-triazol-1-yl)butyl]-N-{[3-(trifluoromethoxy)phenyl]methyl}-1H-1,2,3-triazole-4-carboxamide] | < 100 | < 100
O=C(NCc1cccc(OC(F)(F)F)c1)c1cn(CCC(F)Cn2cc(C(=O)NCc3cc(C(F)(F)F)ccn3)nn2)nn1 (stereo not shown) [Example 428, 1-{2-fluoro-4-[4-({[3-(trifluoromethoxy)phenyl]methyl}carbamoyl)-1H-1,2,3-triazol-1-yl]butyl}-N-{[4-(trifluoromethyl)pyridin-2-yl]methyl}-1H-1,2,3-triazole-4-carboxamide] | < 100 | < 100
CNC(=O)c1cn(CCCCc2ccc(NC(=O)CN3CCC(c4ccccc4)CC3)nn2)nn1 [Example 215, N-methyl-1-(4-(6-(2-(4-phenylpiperidin-1-yl)acetamido)pyridazin-3-yl)butyl)-1H-1,2,3-triazole-4-carboxamide] | 100 to 500 | 500 to 5000
COc1ncccc1CNC(=O)c1cn(CC(F)CCc2nnc(NC(=O)Cc3cc(OC(F)(F)F)ccc3F)s2)nn1 (stereo not shown) [Example 223, 1-(2-fluoro-4-(5-(2-(2-fluoro-5-(trifluoromethoxy)phenyl)acetamido)-1,3,4-thiadiazol-2-yl)butyl)-N-((2-methoxypyridin-3-yl)methyl)-1H-1,2,3-triazole-4-carboxamide] | < 100 | < 100
O=C(Cc1ccccn1)Nc1nnc(CC[C@@H](F)Cn2cc(C(=O)NCc3ccc(C(F)(F)F)cn3)nn2)s1 [Example 201, (R)-1-(2-fluoro-4-(5-(2-(pyridin-2-yl)acetamido)-1,3,4-thiadiazol-2-yl)butyl)-N-((5-(trifluoromethyl)pyridin-2-yl)methyl)-1H-1,2,3-triazole-4-carboxamide] | < 100 | 100 to 500
O=C(Cc1cc(OC(F)(F)F)ccc1F)Nc1cn(CCCCn2cc(C(=O)NCc3ncccc3F)nn2)nn1 [Example 382, 1-[4-(4-{2-[2-fluoro-5-(trifluoromethoxy)phenyl]acetamido} 1H-1,2,3-triazol-1-yl)butyl]-N-[(3-fluoropyridin-2-yl)methyl]-1H-1,2,3-triazole-4-carboxamide] | < 100 | 100 to 500
CNC(=O)c1nnc(CCCCc2ccc(NC(=O)Cc3cc(C(F)(F)F)ccn3)nn2)s1 [Example 229, N-methyl-5-(4-(6-(2-(4-(trifluoromethyl)pyridin-2-yl)acetamido)pyridazin-3-yl)butyl)-1,3,4-thiadiazole-2-carboxamide] | < 100 | < 100
O=C(NCc1cncc(C(F)(F)F)c1)c1cn(CCCCn2cc(C(=O)NCc3cccc(C(F)(F)F)n3)nn2)nn1 [Example 144, 1-{4-[4-({[6-(trifluoromethyl)pyridin-2-yl]methyl}carbamoyl)-1H-1,2,3-triazol-1-yl]butyl}-N-{[5-(trifluoromethyl)pyridin-3-yl]methyl}-1H-1,2,3-triazole-4-carboxamide] | < 100 | < 100
